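How tested: cells in 96-well plates exposed to compound for 48 hours at five concentrations. GI50 = concentration required for 50% inhibition of growth.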 Active and inactive are the calls of the source. Rule as the data show it: active = GI50 up to about 1.1 µM and inactive = higher.
Assays:
Test in all cases: growth of human tumour cells (NCI), 48 h
786-0 = system: 786-0
A498 = system: A498
A549 = system: A549
ACHN = system: ACHN
BT-549 = system: BT-549
CAKI-1 = system: CAKI-1
CCRF-CEM = system: CCRF-CEM
COLO 205 = system: COLO 205
DU-145 = system: DU-145
EKVX = system: EKVX
HCC 2998 = system: HCC 2998
HCT-116 = system: HCT-116
HCT-15 = system: HCT-15
HOP-62 = system: HOP-62
HOP-92 = system: HOP-92
HT-29 = system: HT-29
IGROV-1 = system: IGROV-1
K562 = system: K562
KM12 = system: KM12
LOX IMVI = system: LOX IMVI
M14 = system: M14
MCF7 = system: MCF7
MDA-MB-231 = system: MDA-MB-231
MDA-MB-435 = system: MDA-MB-435
MDA-N = system: MDA-N
MOLT-4 = system: MOLT-4
Malme-3M = system: Malme-3M
NCI-H226 = system: NCI-H226
NCI-H23 = system: NCI-H23
NCI-H460 = system: NCI-H460
NCI-H522 = system: NCI-H522
NCI/ADR-RES = system: NCI/ADR-RES
OVCAR-3 = system: OVCAR-3
OVCAR-4 = system: OVCAR-4
OVCAR-5 = system: OVCAR-5
OVCAR-8 = system: OVCAR-8
PC-3 = system: PC-3
RPMI-8226 = system: RPMI-8226
RXF 393 = system: RXF 393
SF-268 = system: SF-268
SF-295 = system: SF-295
SF-539 = system: SF-539
SK-MEL-28 = system: SK-MEL-28
SK-MEL-2 = system: SK-MEL-2
SK-MEL-5 = system: SK-MEL-5
SK-OV-3 = system: SK-OV-3
SN12C = system: SN12C
SNB-19 = system: SNB-19
SR = system: SR
SW-620 = system: SW-620
T47D = system: T47D
TK-10 = system: TK-10
U-251 = system: U-251
UACC-257 = system: UACC-257
UACC-62 = system: UACC-62
UO-31 = system: UO-31
Hs-578T = system: Hs-578T
SNB-75 = system: SNB-75
HL-60 = system: HL-60

Structure (SMILES): CC(=O)c1cc(S(=O)(=O)c2ccc(O)c(C(C)=O)c2)ccc1O
- GI50 (786-0): 98.2 µM (inactive)
- GI50 (A498): 64.4 µM (inactive)
- GI50 (A549): 49.4 µM (inactive)
- GI50 (ACHN): 91 µM (inactive)
- GI50 (BT-549): 23.5 µM (inactive)
- GI50 (CAKI-1): > 100 µM (inactive)
- GI50 (CCRF-CEM): 34.4 µM (inactive)
- GI50 (COLO 205): > 100 µM (inactive)
- GI50 (DU-145): > 100 µM (inactive)
- GI50 (EKVX): > 100 µM (inactive)
- GI50 (HCC 2998): 58.2 µM (inactive)
- GI50 (HCT-116): 92 µM (inactive)
- GI50 (HCT-15): 95.9 µM
- GI50 (HOP-62): > 100 µM (inactive)
- GI50 (HOP-92): > 100 µM (inactive)
- GI50 (HT-29): > 100 µM (inactive)
- GI50 (IGROV-1): > 100 µM (inactive)
- GI50 (K562): 79.4 µM (inactive)
- GI50 (KM12): 44.9 µM (inactive)
- GI50 (LOX IMVI): 70.3 µM (inactive)
- GI50 (M14): 67.9 µM (inactive)
- GI50 (MCF7): 67.6 µM (inactive)
- GI50 (MDA-MB-231): > 100 µM (inactive)
- GI50 (MDA-MB-435): 51.3 µM (inactive)
- GI50 (MDA-N): > 100 µM (inactive)
- GI50 (MOLT-4): 25.4 µM (inactive)
- GI50 (Malme-3M): > 100 µM (inactive)
- GI50 (NCI-H226): > 100 µM (inactive)
- GI50 (NCI-H23): 58.1 µM (inactive)
- GI50 (NCI-H460): 84.9 µM (inactive)
- GI50 (NCI-H522): > 100 µM (inactive)
- GI50 (NCI/ADR-RES): 58.7 µM (inactive)
- GI50 (OVCAR-3): > 100 µM (inactive)
- GI50 (OVCAR-4): > 100 µM (inactive)
- GI50 (OVCAR-5): > 100 µM (inactive)
- GI50 (OVCAR-8): 70 µM (inactive)
- GI50 (PC-3): 75.5 µM (inactive)
- GI50 (RPMI-8226): 44.4 µM (inactive)
- GI50 (RXF 393): 71.4 µM (inactive)
- GI50 (SF-268): 55.6 µM (inactive)
- GI50 (SF-295): 36.5 µM (inactive)
- GI50 (SF-539): 30.2 µM (inactive)
- GI50 (SK-MEL-28): 38.7 µM (inactive)
- GI50 (SK-MEL-2): 92 µM (inactive)
- GI50 (SK-MEL-5): > 100 µM (inactive)
- GI50 (SK-OV-3): 66.7 µM (inactive)
- GI50 (SN12C): > 100 µM (inactive)
- GI50 (SNB-19): 68.5 µM (inactive)
- GI50 (SR): 33.4 µM (inactive)
- GI50 (SW-620): > 100 µM (inactive)
- GI50 (T47D): 51.8 µM (inactive)
- GI50 (TK-10): 52 µM (inactive)
- GI50 (U-251): 31.6 µM (inactive)
- GI50 (UACC-257): > 100 µM (inactive)
- GI50 (UACC-62): 18.4 µM (inactive)
- GI50 (UO-31): 28.4 µM (inactive)

Structure (SMILES): O=C(O)c1cc2ccccc2c(/N=N/c2c([N+](=O)[O-])cc([N+](=O)[O-])cc2S(=O)(=O)O)c1O
- GI50 (786-0): > 100 µM (inactive)
- GI50 (A549): > 100 µM (inactive)
- GI50 (ACHN): > 100 µM (inactive)
- GI50 (BT-549): > 100 µM (inactive)
- GI50 (CAKI-1): > 100 µM (inactive)
- GI50 (CCRF-CEM): > 100 µM (inactive)
- GI50 (COLO 205): > 100 µM (inactive)
- GI50 (EKVX): > 100 µM (inactive)
- GI50 (HCT-116): > 100 µM (inactive)
- GI50 (HCT-15): > 100 µM
- GI50 (HOP-62): > 100 µM (inactive)
- GI50 (HOP-92): > 100 µM (inactive)
- GI50 (HT-29): > 100 µM (inactive)
- GI50 (Hs-578T): > 100 µM (inactive)
- GI50 (IGROV-1): > 100 µM (inactive)
- GI50 (K562): > 100 µM (inactive)
- GI50 (KM12): > 100 µM (inactive)
- GI50 (LOX IMVI): > 100 µM (inactive)
- GI50 (M14): > 100 µM (inactive)
- GI50 (MDA-MB-231): > 100 µM (inactive)
- GI50 (MDA-MB-435): > 100 µM (inactive)
- GI50 (MDA-N): > 100 µM (inactive)
- GI50 (MOLT-4): > 100 µM (inactive)
- GI50 (Malme-3M): > 100 µM (inactive)
- GI50 (NCI-H226): > 100 µM (inactive)
- GI50 (NCI-H23): > 100 µM (inactive)
- GI50 (NCI-H522): > 100 µM (inactive)
- GI50 (NCI/ADR-RES): > 100 µM (inactive)
- GI50 (OVCAR-3): > 100 µM (inactive)
- GI50 (OVCAR-4): > 100 µM (inactive)
- GI50 (OVCAR-5): > 100 µM (inactive)
- GI50 (OVCAR-8): > 100 µM (inactive)
- GI50 (PC-3): > 100 µM (inactive)
- GI50 (RPMI-8226): > 100 µM (inactive)
- GI50 (RXF 393): > 100 µM (inactive)
- GI50 (SF-268): > 100 µM (inactive)
- GI50 (SF-295): > 100 µM (inactive)
- GI50 (SK-MEL-28): > 100 µM (inactive)
- GI50 (SK-MEL-2): > 100 µM (inactive)
- GI50 (SK-MEL-5): > 100 µM (inactive)
- GI50 (SK-OV-3): > 100 µM (inactive)
- GI50 (SN12C): > 100 µM (inactive)
- GI50 (SNB-19): > 100 µM (inactive)
- GI50 (SNB-75): > 100 µM (inactive)
- GI50 (SW-620): > 100 µM (inactive)
- GI50 (TK-10): > 100 µM (inactive)
- GI50 (U-251): > 100 µM (inactive)
- GI50 (UACC-257): > 100 µM (inactive)
- GI50 (UACC-62): > 100 µM (inactive)
- GI50 (UO-31): > 100 µM (inactive)

Structure (SMILES): CCN1CCC(O)(/C=C/c2ccc(OC)cc2)C(C(=O)/C=C/c2ccc(OC)cc2)C1 (stereo not given)
- GI50 (786-0): 4.03 µM (inactive)
- GI50 (A498): 13.3 µM (inactive)
- GI50 (A549): 16.6 µM (inactive)
- GI50 (ACHN): 13.7 µM (inactive)
- GI50 (BT-549): 15.5 µM (inactive)
- GI50 (CCRF-CEM): 1.34 µM (inactive)
- GI50 (COLO 205): 4.2 µM (inactive)
- GI50 (DU-145): 10.9 µM (inactive)
- GI50 (EKVX): 13.6 µM (inactive)
- GI50 (HCC 2998): 14.9 µM (inactive)
- GI50 (HCT-116): 3.81 µM (inactive)
- GI50 (HCT-15): > 10 µM
- GI50 (HL-60): 3.15 µM (inactive)
- GI50 (HOP-62): 18.2 µM (inactive)
- GI50 (HOP-92): 9.48 µM (inactive)
- GI50 (HT-29): 7.16 µM (inactive)
- GI50 (IGROV-1): 13.7 µM (inactive)
- GI50 (K562): 2.75 µM (inactive)
- GI50 (KM12): 7.8 µM (inactive)
- GI50 (LOX IMVI): 2.37 µM (inactive)
- GI50 (M14): 15.5 µM (inactive)
- GI50 (MCF7): 3.08 µM (inactive)
- GI50 (MDA-MB-231): 5.02 µM (inactive)
- GI50 (MDA-MB-435): 6.05 µM (inactive)
- GI50 (MDA-N): 7.5 µM (inactive)
- GI50 (MOLT-4): 2.72 µM (inactive)
- GI50 (Malme-3M): 17.1 µM (inactive)
- GI50 (NCI-H226): 16 µM (inactive)
- GI50 (NCI-H23): 12.4 µM (inactive)
- GI50 (NCI-H460): 11.1 µM (inactive)
- GI50 (NCI-H522): 12.5 µM (inactive)
- GI50 (NCI/ADR-RES): 6.15 µM (inactive)
- GI50 (OVCAR-3): 14.1 µM (inactive)
- GI50 (OVCAR-4): 13.3 µM (inactive)
- GI50 (OVCAR-5): 15.2 µM (inactive)
- GI50 (OVCAR-8): > 10 µM (inactive)
- GI50 (PC-3): 11.3 µM (inactive)
- GI50 (RPMI-8226): 2.26 µM (inactive)
- GI50 (RXF 393): 2.37 µM (inactive)
- GI50 (SF-268): 13.8 µM (inactive)
- GI50 (SF-295): 11.8 µM (inactive)
- GI50 (SF-539): 13.7 µM (inactive)
- GI50 (SK-MEL-28): 12 µM (inactive)
- GI50 (SK-OV-3): 10.6 µM (inactive)
- GI50 (SN12C): 14.8 µM (inactive)
- GI50 (SNB-19): 15.1 µM (inactive)
- GI50 (SR): 3.46 µM (inactive)
- GI50 (SW-620): 4.53 µM (inactive)
- GI50 (T47D): 6.04 µM (inactive)
- GI50 (TK-10): 13.8 µM (inactive)
- GI50 (U-251): 6.34 µM (inactive)
- GI50 (UACC-257): 11.1 µM (inactive)
- GI50 (UACC-62): 12 µM (inactive)
- GI50 (UO-31): 9.93 µM (inactive)

Reference: ChEMBL document CHEMBL1201862, “PubChem BioAssay data set” (2004)
